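In this assay, cells in 96-well plates receive the compound at five concentrations for 48 hours. Endpoints are linearly interpolated between the surrounding concentrations. GI50 = concentration required for 50% inhibition of growth. At the TGI there is no net growth.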 Bounds are passed on as bounds.

The test system of one assay is SNB-75 CNS. Put plainly: NCI tumour cell line growth inhibition, 48 h.
`COc1cccc(COc2cc(-n3cnc4ccccc43)sc2C(N)=O)c1`: the GI50 is above 12.2 µM and the TGI is above 25 µM.

As for `CCN(CC)c1ccc(/C=C/C2=[N+](C)c3ccccc3C2(C)C)c(C)c1`, the GI50 was 0.0736 µM and the TGI amounted to 0.876 µM.

As for `CCOC(OC1=C(C#N)CCCC1)C(CC)[Se]c1ccccc1` (stereo not drawn), the TGI was 80.7 µM.

With `Fc1ccc2nc(-c3cc(-c4ccc5c(c4)OCO5)n[nH]3)[nH]c2c1`, the GI50 is 2.8 µM and the TGI came to 13.8 µM.

For the compound `COC(=O)c1ccc2c(c1)C(=O)c1c-2n(CCCN=[N+]=[N-])c(=O)c2cc([N+](=O)[O-])ccc12`, the GI50 is 20.5 µM and the TGI stood at 40.8 µM.

Turning to `C=C1C(=O)C23C(O)C1CC[C@H]2C12CCCC(C)(COC(C)=O)[C@H]1[C@H](O)[C@]3(O)OC2` (stereo partly drawn), the TGI was 4.33 µM.

Compound `CN(C)C(=S)Nc1nnc(Nc2ccccc2)s1` came in with a TGI above 100 µM.

`COc1ccc(C2=C(N3CCc4ccccc43)C(=O)NC2=O)cc1`: the GI50 was above 24.1 µM and the TGI was above 25 µM.

With `O=[N+]([O-])c1ccc(-c2cc3c(Nc4ccc(Cl)c(C(F)(F)F)c4)ncnc3s2)cc1`, the GI50 was 1.87 µM and the TGI turned out to be 9.02 µM.

For another assay, the system named is COLO 205 colon. Put plainly: NCI tumour cell line growth inhibition, 48 h.
Regarding `CCn1c(-c2nonc2N)nc2ccncc21`, the GI50 was above 25 µM and the TGI is above 25 µM.

With `CC(C)[O-].CC(C)[O-].CN(CCN(C)Cc1cc(F)cc(F)c1[O-])Cc1cc(F)cc(F)c1[O-].[Ti+4]`, the GI50 was 1.62 µM and the TGI is 4.86 µM.

For the compound `CSc1ccc(N(C)c2nc(C)nc3c2CCC3)cc1`, the GI50 is below 0.01 µM and the TGI is below 0.01 µM.

With `O=C1/C(=C/c2ccc([N+](=O)[O-])cc2)COc2ccc(O)cc21`, the GI50 was 10.7 µM and the TGI was determined as 55.7 µM.

Take `COc1ccc(-c2cnoc2-c2cc(OC)c3c(c2)OCCO3)cc1`: the GI50 was 0.0231 µM and the TGI came to 0.0806 µM.

In turn, `CC(=O)n1c(=O)c2cc3c(=O)n(-c4cccc(C#N)c4)c(=O)c3cc2c1=O` gave a TGI above 100 µM.

Compound `COc1ccc(C2Oc3c(c(O)cc4c3[C@H](c3ccc(O)cc3O)[C@H](O)C(c3ccc(O)c(O)c3)O4)C[C@@H]2O)cc1O` (stereo partly drawn) gave a TGI above 100 µM.

As to `CC(C)Oc1ccc(C(=O)Cn2ccnc2)cc1-n1c(CN2CCN(C(=O)COc3ccc(Cl)cc3)CC2)nc2ccccc2c1=O`, the GI50 was 7.34 µM and the TGI is 32.7 µM.

In the case of `COc1cccc(COc2cc(-n3cnc4ccccc43)sc2C(N)=O)c1`, the GI50 is 4.75 µM and the TGI was above 25 µM.

In the case of `CCN(CC)c1ccc(/C=C/C2=[N+](C)c3ccccc3C2(C)C)c(C)c1`, the GI50 was 0.0489 µM and the TGI turned out to be 0.127 µM.

In turn, `CCOC(OC1=C(C#N)CCCC1)C(CC)[Se]c1ccccc1` (stereo not drawn) showed a TGI of 40.6 µM.

For `Fc1ccc2nc(-c3cc(-c4ccc5c(c4)OCO5)n[nH]3)[nH]c2c1`, the GI50 was 9.22 µM and the TGI was above 66.1 µM.

As for `COC(=O)c1ccc2c(c1)C(=O)c1c-2n(CCCN=[N+]=[N-])c(=O)c2cc([N+](=O)[O-])ccc12`, the GI50 was above 100 µM and the TGI is above 100 µM.

On to `C=C1C(=O)C23C(O)C1CC[C@H]2C12CCCC(C)(COC(C)=O)[C@H]1[C@H](O)[C@]3(O)OC2` (stereo partly drawn), for which the TGI was found to be 4.14 µM.

Compound `CN(C)C(=S)Nc1nnc(Nc2ccccc2)s1` had a TGI above 100 µM.

`COc1ccc(C2=C(N3CCc4ccccc43)C(=O)NC2=O)cc1`: the GI50 was above 25 µM and the TGI was above 25 µM.

For the compound `O=[N+]([O-])c1ccc(-c2cc3c(Nc4ccc(Cl)c(C(F)(F)F)c4)ncnc3s2)cc1`, the GI50 was 1.79 µM and the TGI was 3.35 µM.

In another assay the test system is SF-539 CNS. Put plainly: NCI tumour cell line growth inhibition, 48 h.
For `CCn1c(-c2nonc2N)nc2ccncc21`, the GI50 was above 25 µM and the TGI was above 25 µM.

As for `CC(C)[O-].CC(C)[O-].CN(CCN(C)Cc1cc(F)cc(F)c1[O-])Cc1cc(F)cc(F)c1[O-].[Ti+4]`, the GI50 is 1.01 µM and the TGI amounted to 4.8 µM.

Regarding `CSc1ccc(N(C)c2nc(C)nc3c2CCC3)cc1`, the GI50 is below 0.01 µM and the TGI is below 0.01 µM.

With `O=C1/C(=C/c2ccc([N+](=O)[O-])cc2)COc2ccc(O)cc21`, the GI50 was 4.42 µM and the TGI is 18.3 µM.

For `COc1ccc(-c2cnoc2-c2cc(OC)c3c(c2)OCCO3)cc1`, the GI50 was 0.0235 µM and the TGI was 0.0907 µM.

On to `CC(=O)n1c(=O)c2cc3c(=O)n(-c4cccc(C#N)c4)c(=O)c3cc2c1=O`, for which the TGI is above 100 µM.

For the compound `COc1ccc(C2Oc3c(c(O)cc4c3[C@H](c3ccc(O)cc3O)[C@H](O)C(c3ccc(O)c(O)c3)O4)C[C@@H]2O)cc1O` (stereo partly drawn), the TGI was above 100 µM.

On to `CC(C)Oc1ccc(C(=O)Cn2ccnc2)cc1-n1c(CN2CCN(C(=O)COc3ccc(Cl)cc3)CC2)nc2ccccc2c1=O`, for which the GI50 was 14.4 µM and the TGI came out at 30.4 µM.

Consider `COc1cccc(COc2cc(-n3cnc4ccccc43)sc2C(N)=O)c1`, for which the GI50 was 16 µM and the TGI is above 25 µM.

For `CCN(CC)c1ccc(/C=C/C2=[N+](C)c3ccccc3C2(C)C)c(C)c1`, the GI50 was 0.0939 µM and the TGI turned out to be 7 µM.

For `CCOC(OC1=C(C#N)CCCC1)C(CC)[Se]c1ccccc1` (stereo not drawn), the TGI stood at 31.7 µM.

For the compound `Fc1ccc2nc(-c3cc(-c4ccc5c(c4)OCO5)n[nH]3)[nH]c2c1`, the GI50 is 3.24 µM and the TGI was 31.2 µM.

For the compound `COC(=O)c1ccc2c(c1)C(=O)c1c-2n(CCCN=[N+]=[N-])c(=O)c2cc([N+](=O)[O-])ccc12`, the GI50 was 53.1 µM and the TGI was above 100 µM.

The compound `C=C1C(=O)C23C(O)C1CC[C@H]2C12CCCC(C)(COC(C)=O)[C@H]1[C@H](O)[C@]3(O)OC2` (stereo partly drawn) registered a TGI of 3.07 µM.

`CN(C)C(=S)Nc1nnc(Nc2ccccc2)s1` yielded a TGI above 100 µM.

For the compound `COc1ccc(C2=C(N3CCc4ccccc43)C(=O)NC2=O)cc1`, the GI50 was above 25 µM and the TGI was above 25 µM.

On to `O=[N+]([O-])c1ccc(-c2cc3c(Nc4ccc(Cl)c(C(F)(F)F)c4)ncnc3s2)cc1`, for which the GI50 was 1.88 µM and the TGI worked out at 9.4 µM.

Source of the values: PubChem BioAssay (NCI).
